Experimental data taken from patent publication US20070208087A1, “Compounds, compositions and methods for the treatment of inflammatory diseases” (priority 2001, published 2007).
“And” between values parts separate entries of the source, which are not always exact repeats. Identical values can stand only once.

Legend:
Assay type in all cases: cell-based
[1] = test system: TNF-α release from microglia; assay: TNF-α release from LPS/IFNγ stimulated microglia, TNF-α ELISA (Example 11); conditions: for Avg % Inhibition / % inhibition / TNF-α ELISA raw reading (not NO; the printed μM unit is unsupported): 50 uM compound, 10 ug LPS and 10 ng IFNγ, 24 hours; for Avg % Inhibition / % inhibition: TNF-α release; for % inhibition: individual replicates; for TNF-α ELISA raw reading (not NO; the printed μM unit is unsupported): 3 replicates
Procedure: Also, bis- and tris-dihydroxyaryl compound's ability to inhibit NO release strongly supports their interference with the inflammatory cascade and utlimately inhibition of inflammation. Microglia cells were plated at 1×10^5 cells/ml into 96 well plates. At day three, they were treated with 50 μM bis- and tris-dihydroxyaryl compound for 1 hour and then exposed to 10 μg/ml LPS+10 ng/ml IFNγ for 24 hours. 10 μl of media was removed and stored at −80° until TNF-α ELISA assays were performed. Samples were diluted 1:50 before running the TNF-α ELISA (kit commercially available from Sigma).

[2] = test system: EOC 13.31 microglia cells; assay: Inhibition of NO release from microglia following 24 hours pretreatment (Example 10); conditions: 50 uM pretreatment 24 hours, then LPS/IFNγ 48 hours; for inhibition at 50 µM: Microglia
Procedure: This experiment was designed to determine if pretreatment for 24 hours with bis- and tris-dihydroxyaryl compounds changes NO inhibition previously observed with concurrent exposure of bis- and tris-dihydroxyaryl compounds. […] This study seeks to determine if pretreatment with bis- and tris-dihydroxyaryl compounds increases NO release inhibition. EOC 13.31 microglia cells were plated at 1×10^6 cells/ml in 96 well plates. After 48 hours, confluent cells were exposed to 50 μM compound (stock 10 mM in DMSO) prepared in fresh cell culture media. After 24 hours, 10 μg/ml LPS and 10 ng/ml IFNγ was added to wells directly without a media change. Cells were incubated for a further 48 hours and nitric oxide release was measured using the Griess Reaction.

[3] = test system: EOC 13.31 microglia cells; assay: NO release inhibition in LPS/IFNγ stimulated microglia, concurrent treatment, Griess reaction at 24 hours (Example 6); conditions: 24 hours; for NO release, Avg: 50 μM; for inhibition at 50 µM: Microglia
Procedure: The purpose of this experiment was to screen compounds 3, 4, 21, 26, 51, 52, 66, and 78 for their ability to inhibit Nitric oxide release from microglia. […] EOC 13.31 microglia cells were plated into 96 well plates for 24 hours. Confluent cells were treated with 50 μM of the bis- and tris-dihydroxyaryl compounds either with or without stimulation at 1 pg/ml LPS, and 1 ng/ml IFNγ. NO release was measured at 24 hours using the Griess reaction which is a spectrophotometric measure of NO release (reagents from Promega).

| SMILES | Avg % Inhibition [1] [%] | % inhibition ([1]; 50 µM) | TNF-α ELISA raw reading (not NO; the printed μM unit is unsupported) [1] | other results |
| --- | --- | --- | --- | --- |
| Oc1ccc(Cc2ccc(O)c(O)c2)cc1O [Compound 3-2] | 29.41 | 28.11% and 32.65% and 27.48% | 0.593 µM and 0.627 µM and 0.623 µM | – |
| Oc1ccc(CCc2ccc(O)c(O)c2)cc1O [Compound 4-3] | 89.89 | 88.39% and 91.14% and 90.14% | 0.177 µM and 0.185 µM and 0.199 µM | inhibition of TNF-α release ([1]; 50 μM for 1 hour, then 10 μg/ml LPS + 10 ng/ml IFNγ for 24 hours): 89% |
| CN1C2CCC1C(Cc1ccc(O)c(O)c1)C(=O)C2Cc1ccc(O)c(O)c1 (stereo not shown) [Compound 19-2] | 9.42 | 7.78% and 8.44% and 12.05% | 0.730 µM and 0.708 µM and 0.734 µM | Avg % Inhibition [2]: 82.93%; % inhibition ([2]; single replicates): 73.11% and 91.80% and 83.87%; OD values (printed under head μM NO release) ([2]; single replicates): 0.135 and 0.161 and 0.195; μM NO release ([2]; single replicates): 1.620 µM and 3.188 µM and 5.313 µM |
| O=C(NCc1ccc(O)c(O)c1)C(=Cc1ccc(O)c(O)c1)NC(=O)c1ccc(O)c(O)c1 [Compound 21-2] | −23.18 | −25.92% and −23.45% and −20.16% | 0.924 µM and 0.904 µM and 0.939 µM | – |
| O=C(Nc1ccc(O)c(O)c1)c1ccc(O)c(O)c1 [Compound 51, 3,4-dihydroxybenzoic acid 3,4-dihydroxyanilide] | – | – | – | % inhibition ([2]; single replicates): 47.81% and 59.20%; inhibition at 50 µM ([2]; read-out: Avg % Inhibition): 56%; inhibition at 50 µM ([2]; single replicates, read-out: % inhibition): 61.1%; NO release, Avg ([3]; Compound + LPS/IFNγ): 20.6633 µM; NO release, Avg ([3]; Compound Only (without LPS/IFNγ)): 1.2500 µM; inhibition at 50 µM ([3]; Compound + LPS/IFNγ, read-out: % inhibition of NO release): -11%; inhibition at 50 µM ([3]; Table 2 summary, LPS/IFNγ, read-out: % Inhibition (summary of inhibition of NO release)): -11% |
| O=C(Nc1ccc(O)c(O)c1)c1ccc(O)c(O)c1 [Compound 51-1] | – | −17.57% and −12.94% and −13.42% | 0.880 µM and 0.883 µM and 0.909 µM | Avg % Inhibition ([1]; 50 µM): −14.64% |
| O=C(Nc1ccc(O)c(O)c1)c1ccc(O)c(O)c1 [Compound 51-4] | – | −20.13% and −17.25% and −11.34% | 0.907 µM and 0.870 µM and 0.925 µM | Avg % Inhibition ([1]; 50 µM): −16.24% |
| O=C(CCC(=O)Nc1ccc(O)c(O)c1)Nc1ccc(O)c(O)c1 [Compound 66-2] | −13.70 | −14.08% and −17.70% and −9.32% | 0.889 µM and 0.838 µM and 0.867 µM | – |
| O=C(Nc1ccc(O)c(O)c1)Nc1ccc(O)c(O)c1 [Compound 76-2] | −9.81 | −8.66% and −11.12% and −9.64% | 0.849 µM and 0.840 µM and 0.834 µM | – |
| O=C(NCc1ccc(O)c(O)c1)Nc1ccc(O)c(O)c1 [Compound 77-1] | 2.58 | 4.66% and 4.16% and −1.10% | 0.756 µM and 0.788 µM and 0.753 µM | – |
| C[C@@H]1C[C@H]2[C@@H]3CCC4=CC(=O)C=C[C@]4(C)[C@@]3(F)[C@@H](O)C[C@]2(C)[C@@]1(O)C(=O)CO [Dexamethasone, reference compound] | – | – | – | inhibition at 50 µM ([1]; Microglia, 50 μM for 1 hour, then 10 μg/ml LPS + 10 ng/ml IFNγ for 24 hours, read-out: inhibition of TNF-α release): 72.4% |
